Source: publication PMC5608758, “A brain-targeting lipidated peptide for neutralizing RNA-mediated toxicity in Polyglutamine Diseases” (Scientific Reports, 2017)
Entries after “also recorded” stand apart in the source; their conditions may differ. Residues, ends and D or L forms follow the SMILES beside them. *: point of attachment. Palmitoyl = CCCCCCCCCCCCCCCC(=O)*

Experiments:
[1] = tested on: DsRed CAG0 Drosophila; assay: Pseudopupil assay in control flies (toxicity); assay type: in vivo; settings: P3V8 at up to 50 µM
Protocol: Flies were raised at 21.5 °C on cornmeal medium supplemented with dry yeast. Fly lines bearing UAS-DsRed CAG0 and UAS-DsRed CAG100 were kind gifts of Professor Nancy Bonini (University of Pennsylvania, USA). The gmr-GAL4 fly line was obtained from Bloomington Drosophila Stock Center. […] Pseudopupil assay was performed on 12 day-old adult flies as mentioned previously. Images were captured by SPOT Insight CCD camera controlled by the SPOT Advanced software (Diagnostic instruments Inc.). Image processing was performed using the Adobe Photoshop CS software (Adobe). Each experiment was repeated at least 3 times (n = 10 fly heads), and consistent results were obtained. For viability test of wild-type flies from egg to adult stage, eggs born within 5 hr were collected and cultured in fly food containing 10 or 50 μM of respective peptides at 21.5°C. Viability from egg-to-adult was calculated as the number of adult flies collected divided by the number of eggs examined. Each experiment was repeated for three times (at least 130 eggs were examined in each group). Two batches of independently synthesized peptides were used in the experiments.

[2] = tested on: wild type Drosophila; assay: Egg-to-adult viability of wild type flies; assay type: in vivo; settings: fly food containing 10 or 50 µM peptide, 21.5 °C; 3 independent experiments
Protocol: Flies were raised at 21.5 °C on cornmeal medium supplemented with dry yeast. Fly lines bearing UAS-DsRed CAG0 and UAS-DsRed CAG100 were kind gifts of Professor Nancy Bonini (University of Pennsylvania, USA). The gmr-GAL4 fly line was obtained from Bloomington Drosophila Stock Center. For pseudopupil assay, third instar larvae were fed with various amount of respective peptides dissolved in 2% sucrose solution for 2 hr and then continued to culture in standard fly food at 21.5 °C[38]. Pseudopupil assay was performed on 12 day-old adult flies as mentioned previously. Images were captured by SPOT Insight CCD camera controlled by the SPOT Advanced software (Diagnostic instruments Inc.). Image processing was performed using the Adobe Photoshop CS software (Adobe). Each experiment was repeated at least 3 times (n = 10 fly heads), and consistent results were obtained. […] Viability from egg-to-adult was calculated as the number of adult flies collected divided by the number of eggs examined. […]
viability of wild type Drosophila from egg to adult. […] Viability from egg to adult was calculated as the number of adult flies collected divided by the number of eggs examined. Data are expressed as mean ± S.E.M. for 3 independent experiments. […]

[3] = In vitro stability in rat plasma; assay type: in vitro ADME; settings: for remaining at 3 h, 2000 ng/mL: rat; for remaining at 1 h, 500 ng/mL / remaining at 3 h, 1000 ng/mL: LLOQ 12.5 ng/mL P3V8
Protocol: (§1) Sprague-Dawley (SD) rats (male, 180-200 g) were supplied by the Laboratory Animal Services Centre at The Chinese University of Hong Kong. All animal studies were conducted under the approval of the Animal Ethics Committee of The Chinese University of Hong Kong, and were performed in accordance with relevant guidelines and regulations. Blank rat brain homogenate was prepared by ultrasonic probe homogenization (Micoson XL-2000, Misonix, […], USA) of brains collected from the control rats. Blank rat plasma was prepared by centrifugation (8000 rcf for 3.5 min) of blood collected from control rats. […] The mixtures were incubated at 37 °C with 100 rpm in a water bath for 1 or 3 hr. […] The supernatant was collected for LC/MS/MS analysis.

[4] = In vitro stability in rat brain homogenate; assay type: in vitro ADME; settings: for remaining at 1 h, 1000 ng/mL / remaining at 1 h, 2000 ng/mL: incubation 1 hr; for remaining at 1 h, 2000 ng/mL: 100 rpm
Protocol: as §1

[5] = tested on: expanded MJD CAG78 RNA; assay: Isothermal titration calorimetry binding assay, expanded CAG RNA
Protocol: (§2) Experiments were carried out using a MicroCal iTC200 isothermal titration calorimeter (GE Healthcare) at 25 °C. Data were analyzed using the Origin® scientific plotting software version 7 (Microcal Software Inc.). All RNAs and peptides were dissolved in binding buffer (20 mM MOPS, pH 7.0; 300 mM NaCl) and 0.7 mM of peptide was titrated into 0.5 µM of RNA for each experiment. The concentration of RNA was estimated with appropriate extinction coefficients at 260 nm on a Nanodrop 2000 (Thermo Scientific). A reference power of 8 μcal/s was used with an initial 0.5 µl of injection of peptide followed by 2 µl for all subsequent titrations points with a 60 sec initial equilibrium delay and 150 sec pause between injections. The samples were stirred at a speed of 1000 rpm throughout the experiment. The thermal titration data were fitted to the ‘one binding site model’ to determine the dissociation constant (KD). Each experiment was repeated at least 3 times with consistent results obtained.

[6] = biological target: MJD CAG27 RNA; assay: Isothermal titration calorimetry binding assay, unexpanded CAG RNA; settings: ITC
Protocol: as §2

[7] = biological target: MJD CAA/G78 RNA; assay: Isothermal titration calorimetry binding assay, expanded CAA/G RNA; settings: ITC; 0.7 mM P3V8 titrated into 0.5 µM MJD CAA/G78 RNA; one binding site model; mean ± S.E.M., at least 3 independent experiments
Protocol: as §2

[8] = tested on: pre-rRNA in DsRed CAG100 flies; assay: Real-time PCR of pre-rRNA level in fly heads; assay type: in vivo, Drosophila; settings: 1 μM peptide, 12 day-old adult fly heads
Protocol: RNA was extracted from cells or ten 12 day-old adult fly heads by Trizol reagent (Life Technologies), and 1 μg of purified RNA was then used for reverse-transcription using the ImPromII™ Reverse Transcription System (Promega). Random hexamer (Roche) was used as primers in reverse transcription. Taqman gene expression assays were performed on an ABI 7500 Real-time PCR system and data were analyzed as previously described. The following probes were used: pre-45s rRNA (Assay ID: AILJIZM), pre-rRNA (Assay ID: AIMSG5U), Drosophila GAPDH (Assay ID: Dm01841186) and human actin (Assay ID: Hs99999903_m1). Each experiment was repeated at least 3 times.

[9] = male, Sprague-Dawley, rat plasma, 500 ng/mL, 37 °C, incubation 1 hr, LC/MS/MS, mean ± S.E.M. of 5, read-out: Percentage of remained
[10] = male, Sprague-Dawley, rat plasma, 1000 ng/mL, 37 °C, incubation 3 hr, LC/MS/MS, mean ± S.E.M. of 5, read-out: Percentage of remained
[11] = rat plasma, 2000 ng/mL, 37 °C, 100 rpm, incubation 1 hr, LC/MS/MS, mean ± S.E.M. of 5 independent experiments
[12] = male, Sprague-Dawley, rat, tissue homogenate, read-out: Percentage of remained

**Q.** With CCCCCCCCCCCCCCCC(=O)N[C@@H](CC(=O)O)C(=O)NCC(=O)N[C@@H](CCCCN)C(=O)N[C@@H](CO)C(=O)N[C@@H](CCCCN)C(=O)NCC(=O)N[C@H](C(=O)N[C@@H](C)C(=O)N[C@@H](Cc1ccc(O)cc1)C(=O)N[C@H](C(=O)N[C@@H](CCC(=O)O)C(=O)N[C@@H](Cc1ccccc1)C(=O)N[C@@H](CCCCN)C(N)=O)[C@@H](C)CC)[C@@H](C)CC [L1P3V8] (Palmitoyl-DGKSKGIAYIEFK-NH2) as the molecule, how does the “toxic effect on control flies” value [1] read?
**A.** no cytotoxic effects

**Q.** And the egg-to-adult viability [2]?
**A.** did not affect; also recorded: no obvious alteration

**Q.** What about the remaining at 3 h, 2000 ng/mL ([3]; male, Sprague-Dawley, plasma, read-out: Percentage of remained) of the same molecule?
**A.** 86.9 ± 5.5%

**Q.** What about the remaining at 1 h, 500 ng/mL [3, 9] of the same molecule?
**A.** 88.1 ± 4.9%

**Q.** And the remaining at 3 h, 500 ng/mL ([3]; male, Sprague-Dawley, rat plasma, 500 ng/mL, 37 °C, incubation 3 hr, LC/MS/MS, mean ± S.E.M. of 5, read-out: Percentage of remained)?
**A.** 73.8 ± 5.7%

**Q.** And the remaining at 3 h, 1000 ng/mL [3, 10]?
**A.** 81.2 ± 1.5%

**Q.** What about the remaining at 1 h, 2000 ng/mL ([3]; male, Sprague-Dawley, rat plasma, 2000 ng/mL, 37 °C, 100 rpm, incubation 1 hr, LC/MS/MS, mean ± S.E.M. of 5 independent experiments, read-out: Percentage of remained) of the same molecule?
**A.** 98.8 ± 5%

**Q.** What about the Percentage of remained ([3]; rat plasma, 1000 ng/mL, 37 °C, incubation 1 hr, LC/MS/MS, mean ± S.E.M. of 5) of the same molecule?
**A.** 98.7 ± 3.9 %

**Q.** And the Percentage of remained [3, 11]?
**A.** nearly all L1P3V8 remained intact

**Q.** What about the remaining at 1 h, 500 ng/mL [4, 12] of the same molecule?
**A.** < 20%

**Q.** And the remaining at 3 h, 500 ng/mL [4, 12]?
**A.** < 20%

**Q.** And the remaining at 1 h, 1000 ng/mL ([4]; male, Sprague-Dawley, tissue homogenate, rat brain homogenate, 37 °C, LC/MS/MS, mean ± S.E.M. of 5, read-out: Percentage of remained)?
**A.** 22.8 ± 1.2%

**Q.** What about the remaining at 3 h, 1000 ng/mL ([4]; male, Sprague-Dawley, tissue homogenate, rat brain homogenate, 37 °C, incubation 3 hr, LC/MS/MS, mean ± S.E.M. of 5, LLOQ 12.5 ng/mL P3V8, read-out: Percentage of remained) of the same molecule?
**A.** 15.8 ± 0.7%

**Q.** And the remaining at 1 h, 2000 ng/mL ([4]; male, Sprague-Dawley, tissue homogenate, rat brain homogenate, 2000 ng/mL, 37 °C, LC/MS/MS, mean ± S.E.M. of 5, read-out: Percentage of remained)?
**A.** 45 ± 3.5%

**Q.** What about the remaining at 3 h, 2000 ng/mL ([4]; male, Sprague-Dawley, tissue homogenate, rat brain homogenate, 2000 ng/mL, 37 °C, incubation 3 hr, LC/MS/MS, mean ± S.E.M. of 5, LLOQ 12.5 ng/mL P3V8, read-out: Percentage of remained) of the same molecule?
**A.** 21.2 ± 3%

**Q.** Which “improvement of binding affinity for expanded CAG RNA over P3” value ([5]; ITC KD relative to P3) does the source give for Ac-DGKSKGIAYIEFK-NH2 [P3V8] here?
**A.** more than 20 fold

**Q.** What about the Kd ([5]; ITC, 25 °C, 20 mM MOPS pH 7.0, 300 mM NaCl, 0.7 mM peptide titrated into 0.5 µM MJD CAG78 RNA, one binding site model, mean ± S.E.M., at least 3 independent experiments) of the same molecule?
**A.** 0.33 ± 0.04 µM

**Q.** And the Kd ([6]; 0.7 mM P3V8 titrated into 0.5 µM MJD CAG27 RNA, one binding site model, mean ± S.E.M., at least 3 independent experiments)?
**A.** 2.19 ± 0.27 µM

**Q.** And the “lower affinity for unexpanded RNA or expanded CAA/G RNA than for expanded CAG RNA” value ([6]; MJD CAG27 RNA or MJD CAA/G78 RNA versus MJD CAG78 RNA)?
**A.** 6–9 fold

**Q.** What about the Kd [7] of the same molecule?
**A.** 2.94 ± 0.96 µM

**Q.** And the pre-rRNA level [8]?
**A.** fully recovered to the DsRed CAG0 control level

**Q.** And the remaining at 3 h, 2000 ng/mL ([3]; male, Sprague-Dawley, rat plasma, read-out: Percentage of remained)?
**A.** < 0.6%

**Q.** What about the remaining at 1 h, 500 ng/mL [3, 9] of the same molecule?
**A.** < 2.5%

**Q.** And the remaining at 1 h, 1000 ng/mL ([3]; male, Sprague-Dawley, rat plasma, 1000 ng/mL, 37 °C, incubation 1 hr, LC/MS/MS, mean ± S.E.M. of 5, read-out: Percentage of remained)?
**A.** 8.6 ± 0.5%

**Q.** What about the remaining at 3 h, 1000 ng/mL [3, 10] of the same molecule?
**A.** < 1.3%

**Q.** And the Percentage of remained [3, 11]?
**A.** 20.7 ± 3.3%

**Q.** What about the Percentage of remained ([3]; rat plasma, 2000 ng/mL, 37 °C, 100 rpm, incubation 3 hr, LC/MS/MS, mean ± S.E.M. of 5, LLOQ 12.5 ng/mL P3V8, 100 ng/mL L1P3V8) of the same molecule?
**A.** almost completely degraded

**Q.** And the remaining at 1 h, 500 ng/mL ([4]; male, Sprague-Dawley, rat, rat brain homogenate, read-out: Percentage of remained)?
**A.** < 2.5%

**Q.** What about the remaining at 1 h, 1000 ng/mL ([4]; male, Sprague-Dawley, rat brain homogenate, 37 °C, LC/MS/MS, mean ± S.E.M. of 5, read-out: Percentage of remained) of the same molecule?
**A.** 4 ± 1.6%

**Q.** What about the remaining at 3 h, 1000 ng/mL ([4]; male, Sprague-Dawley, rat brain homogenate, 37 °C, incubation 3 hr, LC/MS/MS, mean ± S.E.M. of 5, LLOQ 12.5 ng/mL P3V8, read-out: Percentage of remained) of the same molecule?
**A.** < 1.3%

**Q.** And the remaining at 1 h, 2000 ng/mL ([4]; male, Sprague-Dawley, rat brain homogenate, 2000 ng/mL, 37 °C, LC/MS/MS, mean ± S.E.M. of 5, read-out: Percentage of remained)?
**A.** 3.3 ± 0.6%

**Q.** And the remaining at 3 h, 2000 ng/mL ([4]; male, Sprague-Dawley, rat brain homogenate, 2000 ng/mL, 37 °C, incubation 3 hr, LC/MS/MS, mean ± S.E.M. of 5, LLOQ 12.5 ng/mL P3V8, read-out: Percentage of remained)?
**A.** < 0.6%

**Q.** And the Percentage of remained ([4]; rat brain homogenate, 2000 ng/mL, 37 °C, incubation 3 hr, LC/MS/MS, mean ± S.E.M. of 5, LLOQ 12.5 ng/mL P3V8)?
**A.** almost completely degraded
